Data on 118 molecules can be found in patent publication US20190060428A1, “FORMULATIONS FOR NEOPLASIA VACCINES AND METHODS OF PREPARING THEREOF” (The Broad Institue Inc., priority 2015, published 2019).

As usually defined, the solubility is how much of the substance goes into solution per volume.

This data set is described as follows: physchem. The conditions noted are these: pH 6.
Consider H-SMWKGELYRQNRFASSKESAKLYGS-OH, for which the solubility was < 2000 µg/mL. H-LSVPFTCGVNFGDSIEDLEI-OH: the solubility is > 2000 µg/mL. The result for H-SPQSGGAATLAAQARLQPVHLDVWGEHERG-OH reads > 2000 µg/mL. The result for H-DDNGNILDPDKTSTIALFKAHEV-OH reads > 2000 µg/mL. In the case of H-SEIDFPMARSKLLKKKLPSKDL-OH it was > 2000 µg/mL.

Turning to H-VQLSIQDVIRRARLSTVPTAQRVALRSGWI-OH, the solubility is > 2000 µg/mL. In the case of H-FKMDRQGVTQVLSCLSYISALGMMT-OH it was < 2000 µg/mL; in that of H-LRVFIGNIAVNHAPVSLRPGLGLPPGAPPGTVP-OH, < 2000 µg/mL; in that of H-EEFNRRVRENPWDTQLWMAFVAFQDE-OH, < 2000 µg/mL.

For the molecule H-TAQFAPSPGQPPALSPSYPGHRLPLQQG-OH, the solubility is > 2000 µg/mL. In the case of H-LMGRLQHTFKQKMTGVGASLEKR-OH it was > 2000 µg/mL; in that of H-TLKEEVNELQYRQKQLELLITNLMRQVD-OH, < 2000 µg/mL.

Turning to H-AESAQRQGPNGGGEQSANEF-OH, the solubility was > 2000 µg/mL. The result for H-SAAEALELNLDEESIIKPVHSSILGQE-OH reads > 2000 µg/mL; that for H-NHSAKFLKELTLAMDELEENFRG-OH, < 2000 µg/mL; that for H-GSGALGAVGATKVPRNQDWL-OH, > 2000 µg/mL. The result for H-GRMSPSQFARVPGYVGSPLAAMNPK-OH reads > 2000 µg/mL; that for H-KLAWRGRISSSGCPSMTSPPSPMFGMTLHT-OH, > 2000 µg/mL; that for H-TGKPEMDFVRLAQLFARARPMGLF-OH, > 2000 µg/mL. As for H-LPDEVSGLEQLESIINFEKLTEWTSSNVME-OH, the solubility was > 2000 µg/mL. With H-DSPAGPRRKECTMALAPNFTANNR-OH, the solubility is > 2000 µg/mL.

Regarding H-WTPAAPTAMAEVGPGHTPAHPSQGAVPP-OH, the solubility was > 2000 µg/mL. With H-SHTQTTLFHTFYELLIQKNKHK-OH, the solubility is > 2000 µg/mL.

As to H-LKEMNEKVSFIKNSLLSLDSQVGHLQD-OH, the solubility is < 2000 µg/mL. In the case of H-DVGVNSLQQYYLSPDLHFSLIQKENLD-OH, the solubility was < 2000 µg/mL.

Regarding H-NQVLASRYGIRGFSTIKIFQKGESPV-OH, the solubility was > 2000 µg/mL.

As to H-RGQIKLADFRLARLYSSEESR-OH, the solubility is > 2000 µg/mL.

For H-DHAPEFPAREMLLKYQKLLSQER-OH, the solubility was > 2000 µg/mL. The result for H-AALCPASRALEEKKGNYV-OH reads > 2000 µg/mL; that for H-EYWKVLDGELEVAPEYPQSTARDWL-OH, < 2000 µg/mL. In the case of H-SRNTGHLHPTPRFPLLRWTQEPQPLE-OH, the solubility was > 2000 µg/mL. With H-TTSGDERLYPSPTFYIHENYLQLFE-OH, the solubility is < 2000 µg/mL. In the case of H-TIKNSDKNVVLEHFG-OH it was > 2000 µg/mL; in that of H-YLSHTLGAASSFMRPTVPPPQF-OH, > 2000 µg/mL; in that of H-VPRIAELMNKKLPSFGPYLE-OH, > 2000 µg/mL. The result for H-GLTRISIQRAQPLPPCLPSFRPPTALQGLS-OH reads > 2000 µg/mL; that for `CC(C)C[C@H](NC(=O)[C@H](C)N)C(=O)N[C@@H](CCC(=O)O)C(=O)N[C@@H](CCC(=O)O)C(=O)N[C@@H](CCCCN)C(=O)N[C@@H](CCCCN)C(=O)NCC(=O)N[C@@H](CC(N)=O)C(=O)N[C@@H](Cc1ccc(O)cc1)C(=O)N[C@H](C(=O)N[C@H](C(=O)N[C@H](C(=O)N[C@@H](CC(=O)O)C(=O)N[C@@H](Cc1c[nH]cn1)C(=O)NCC(=O)N[C@@H](CO)C(=O)N[C@@H](CS)C(=O)N[C@H](C(=O)O)C(C)C)[C@@H](C)O)C(C)C)C(C)C`, > 2000 µg/mL; that for H-PLMQTELHQLVPEADPEEMA-OH, > 2000 µg/mL. Consider H-TSGSSTALPGSNPSTMDSGSGD-OH, for which the solubility is < 2000 µg/mL. The result for H-SSPLGRANGRRFANPRDSFSAMGFQR-OH reads > 2000 µg/mL. In the case of H-VSWGKKVQPIDSILADWNEDIEAFEMMEKD-OH it was > 2000 µg/mL; in that of H-TKLKSKAPHWTNCILHEYKNLSTS-OH, > 2000 µg/mL. Turning to H-LNTGLFRIKFKEPLENLI-OH, the solubility was > 2000 µg/mL. Consider H-ASATEPANDSLFSPGAANLFSTYLAR-OH, for which the solubility was > 2000 µg/mL. As to H-VPDINMEKKLRKIRAQTQKHLDLYARDG-OH, the solubility is > 2000 µg/mL.

For H-GSGSQMPAWRTRGAISASSTQKTPTTRL-OH, the solubility was > 2000 µg/mL. The result for H-VARNYLREAVSHNASLEVAILRD-OH reads < 2000 µg/mL; that for H-DSAVDKGHPNRSALSLTPGLRIGPSGLFLVFLA-OH, > 2000 µg/mL.

Consider H-KKNITNLSRLVVRPDTDAVY-OH, for which the solubility is > 2000 µg/mL. In the case of H-PASAKSRREFDKIELAYRR-OH it was > 2000 µg/mL; in that of H-KQGWTTEGIWKDVYIIKL-OH, < 2000 µg/mL; in that of H-SAVSAASIPAEHINQATNGGGS-OH, > 2000 µg/mL.

For H-LLDILDTAGREEYSAMRDQYMRT-OH, the solubility is > 2000 µg/mL.

H-LGETMGQVTEKLQPTYMEET-OH: the solubility was > 2000 µg/mL. In the case of H-KLRTIPLSDNTIFRRICTIAKHLE-OH it was > 2000 µg/mL.

H-ALCPASRALEEKKGNYVV-OH: the solubility is > 2000 µg/mL. In the case of H-LHFIMPEKFSFWEDFEE-OH it was < 2000 µg/mL; in that of H-KGASLDAGWGSPRWTTTRMTSASAGRSTRA-OH, > 2000 µg/mL; in that of H-RPAGRTQLLWTPAAPTAMAEVGPGHTP-OH, > 2000 µg/mL. In the case of H-GAVGATKVPRNQDWL-OH it was > 2000 µg/mL; in that of H-LTKLKFSLKKSFNFFDEYF-OH, < 2000 µg/mL. For the molecule H-SLRNNMFEISDRFIGIYKTYNITK-OH, the solubility was > 2000 µg/mL.

Turning to H-PENDDLFMMPRIVDVTSLATEGG-OH, the solubility is > 2000 µg/mL. The result for H-GTEPEPAFQDDAVNAPLEFKMAAGSSG-OH reads > 2000 µg/mL; that for H-AAVDSVTIPPAQCYLSLLHLQQRRMQSA-OH, > 2000 µg/mL.

Consider H-TLDDIKEWLEDEGQVLNIQMRRTLHK-OH, for which the solubility is < 2000 µg/mL.

As to H-HLLQKQTSIQSPSLYGNSSPPLNK-OH, the solubility was > 2000 µg/mL.

As to H-LPDEVSGLEQLESIINFEKL-OH, the solubility is > 2000 µg/mL. In the case of H-SRLQTRKNKKLALSSTPSNIAPSD-OH it was > 2000 µg/mL. In the case of H-SGSPPLRVSVGDFSQEFSPIQEAQQD-OH it was > 2000 µg/mL; in that of H-DKGHQFHVHPLLHSGDDLDP-OH, > 2000 µg/mL; in that of H-FYSNSTVSETQWKVTVTPR-OH, > 2000 µg/mL. The result for H-GLEQLESIINFEKLTEWTSS-OH reads < 2000 µg/mL. Regarding H-SPIKLVQKVASKIPFPDRITEESV-OH, the solubility was > 2000 µg/mL. As for H-VKQLERGEASVVDFKKNLEYAAT-OH, the solubility is > 2000 µg/mL. In the case of H-DGVSEEFWLVDLLPSTHYT-OH it was < 2000 µg/mL.

As for H-WDGPPENDMLLKEICGSLIP-OH, the solubility is > 2000 µg/mL. For H-PAPPPAVPKEHPAPPAPPPASAPTP-OH, the solubility was > 2000 µg/mL.

On to H-KQYLDHSGNLMSMHNIKIFMFQLLRG-OH, for which the solubility was < 2000 µg/mL. In the case of H-RLVLGKFGDLTNNFSSPHAR-OH, the solubility was > 2000 µg/mL. The result for H-ERLSIQNFSKLLNDNIFYMS-OH reads < 2000 µg/mL; that for H-FVGKLQRHPVAVDVLL-OH, > 2000 µg/mL. For the molecule H-SKRGVGAKTLLLPDPFLFWPCLEGTRRSL-OH, the solubility was > 2000 µg/mL.

With H-VDKNGRRRLVYLVENPGGYVAYS-OH, the solubility was > 2000 µg/mL. The result for H-TTTSVKKEELVLSEEDFQGITPGAQ-OH reads < 2000 µg/mL; that for H-DNHLRRNRLIVVDLFHGQL-OH, > 2000 µg/mL; that for H-ARLQSKEYPVIFKSIMRQRLISPQL-OH, > 2000 µg/mL. The result for H-TSRRLTGLLDHEVQAGRQ-OH reads > 2000 µg/mL. In the case of H-NNQTNSPTTPNFGSSGSFNLPNSGD-OH it was > 2000 µg/mL; in that of H-LMSNLAFADFCMRMYL-OH, < 2000 µg/mL. For the molecule H-KHLPGVNFPGNQWNPVEGILPS-OH, the solubility is > 2000 µg/mL. In the case of H-RQRRGRLGLPGEAGLEGFEPSDALGPD-OH, the solubility is > 2000 µg/mL. The result for H-DRSVLAKKLKFVTLVFRHGDRSPID-OH reads > 2000 µg/mL; that for H-LHTHYDYVSALHPVSTPSKEYTSA-OH, > 2000 µg/mL; that for H-DATFSDGSLGQLVKNTSATYALS-OH, > 2000 µg/mL. The result for H-NILHQEELIAQKKWEIEAKMEQK-OH reads > 2000 µg/mL; that for H-EDSKYQNLLPFFVGHNMLLVSEE-OH, < 2000 µg/mL. Consider H-GDQYKATDFVADWAGTFKMVFTPKDGSG-OH, for which the solubility is > 2000 µg/mL. The result for H-DGGRQHSGPRRHSGAGPKPSSSEWAVCWAP-OH reads > 2000 µg/mL; that for H-DVTGPHLYSIYLHGSTDKLPYVTMGS-OH, > 2000 µg/mL; that for H-AAVRPEQRPAARGSRV-OH, > 2000 µg/mL. The result for H-DDSLHIQATYISGPVLAGSGD-OH reads > 2000 µg/mL; that for H-RRGGALFASRPRFTPL-OH, > 2000 µg/mL; that for H-TWAGHVSTALARPLGAPWAEPGSCGPGTN-OH, > 2000 µg/mL. Regarding H-AIYHKYYHYLYSYYLPASLKNMVD-OH, the solubility was < 2000 µg/mL.

As to H-HKSIGQPKLSTHPFLCPKPQKMNTSLGQHLTL-OH, the solubility is > 2000 µg/mL. Turning to H-DEQGREAELARSGPSAAGPVRLKPGLVPGL-OH, the solubility was > 2000 µg/mL. Turning to H-ALLQNVELRRNVLVSPTPLAN-OH, the solubility was > 2000 µg/mL.

For the molecule H-LENNANHDETSFLLPRKESNIVD-OH, the solubility is > 2000 µg/mL.

As to H-EVVGGYTWPSGNIYQGYWAQGKR-OH, the solubility is > 2000 µg/mL. The result for H-TNGPEKNSSSFPSSVDYAASGPRKL-OH reads > 2000 µg/mL; that for H-KMQRRNDDKSILMHGLVSLRESSRG-OH, > 2000 µg/mL; that for H-KGEKNGMTFSSTKDYVNNV-OH, > 2000 µg/mL. In the case of H-MPPPGALMGLALKKKSIPQPTN-OH it was > 2000 µg/mL; in that of H-DVTYDGHPVLGSPYTVEASL-OH, < 2000 µg/mL; in that of H-VTSPKASPVTFPAAAFPTASPANKD-OH, > 2000 µg/mL. Consider H-VAGLAASGLHGSAWLVPGEQPVSGPHHGKQ-OH, for which the solubility is > 2000 µg/mL. With H-FLLQVPGSPVVSPSA-OH, the solubility was > 2000 µg/mL.
